One experiment addresses T1, CRM1 (Homo sapiens, UniProt O14980).
T1 construct: HeLa cells expressing GFP that was N-terminally fused to a nuclear localization and C-terminally fused to the nuclear export signal of PKI; endogenous in cells; host or cells: HeLa cells expressing an NLS-GFP-NES(PKI) reporter
The experiment in a line: CRM1-mediated nuclear export assay (GFP nuclear localization in HeLa cells). The conditions noted are these: HeLa cells expressing NLS-GFP-NES(PKI), 3 hours, concentration at which approximately 50% of the cells showed nuclear GFP. The class given is cell-based. The protocol: HeLa cells expressing GFP that was N-terminally fused to a nuclear localization and C-terminally fused to the nuclear export signal of PKI were treated with different concentrations of test compounds for 3 hours and then scored for nuclear localization of GFP.
HeLa cells were cultured in Dulbecco's modified Eagle's medium (DMEM) supplemented with 10% (vol/vol) heat-inactivated fetal calf serum, 2 mM L-glutamine 0.1% sodium bicarbonate, and 20 μg/ml gentamicin. The cells were plated in 96-well plates at 0.02×10^6 cells/well and incubated overnight. The next day, compound was added to the cells and incubated for another 3 hours. After 3 hours, GFP subcellular localization was monitored using a Leica DMI6000 microscope.

In a further experiment the test system is MM1.S cells. The experiment in a line: CellTiter 96 AQueous One Solution cell proliferation assay (MTS). The class given is cell-based. Particulars: Homo sapiens, 72 h of treatment, MTS absorbance at 490 nm. From the text: The CellTiter 96® AQueous One Solution cell proliferation assay (Promega) was used on MM1.S cells to study the cytotoxic and cytostatic properties of the compounds. The assay is based on the cleavage of the tetrazolium salt, MTS, in the presence of an electron-coupling reagent PES (phenazine ethosulfate). The MTS tetrazolium compound is bioreduced by cells into a colored formazan product that is soluble in tissue culture medium. This conversion is presumably accomplished by NADPH or NADH produced by dehydrogenase enzymes in metabolically active cells. Assays are performed by adding a small amount of the CellTiter 96® AQueous One solution reagent directly to culture wells, incubating for 1-4 hours and then recording the absorbance at 490 nm with a 96-well plate reader.
The cells were seeded at 5×10^3 to 1.5×10^4 cells (depending on cell type) in each well of 96-well plate in 100 μL of fresh culture medium and adherent cells were allowed to attach for overnight. The stock solutions of the compounds were diluted in cell culture medium to obtain eight concentrations of each drug, ranging from 1 nM to 30 μM and DMSO at less than 1% v/v was used as a negative control. After 72 h of treatment, 20 μL of CellTiter 96® AQueous reagent was added into each well of the 96-well assay plates and the plate was incubate at 37° C. for 1-4 hours in a humidified, 5% CO2 atmosphere. Then the absorbance of each well was recorded at 490 nm by using a 96-well plate reader. In most cases, the assay was performed in triplicates and the results were presented as half maximal inhibitory concentration (IC50). Optical density versus compound concentration was plotted and analyzed using non linear regression equations (Excel Fit) and the IC50 for each compound was calculated.

Structures are written as SMILES.

T1 sequence (O14980 whole entry, the tested form may be a part): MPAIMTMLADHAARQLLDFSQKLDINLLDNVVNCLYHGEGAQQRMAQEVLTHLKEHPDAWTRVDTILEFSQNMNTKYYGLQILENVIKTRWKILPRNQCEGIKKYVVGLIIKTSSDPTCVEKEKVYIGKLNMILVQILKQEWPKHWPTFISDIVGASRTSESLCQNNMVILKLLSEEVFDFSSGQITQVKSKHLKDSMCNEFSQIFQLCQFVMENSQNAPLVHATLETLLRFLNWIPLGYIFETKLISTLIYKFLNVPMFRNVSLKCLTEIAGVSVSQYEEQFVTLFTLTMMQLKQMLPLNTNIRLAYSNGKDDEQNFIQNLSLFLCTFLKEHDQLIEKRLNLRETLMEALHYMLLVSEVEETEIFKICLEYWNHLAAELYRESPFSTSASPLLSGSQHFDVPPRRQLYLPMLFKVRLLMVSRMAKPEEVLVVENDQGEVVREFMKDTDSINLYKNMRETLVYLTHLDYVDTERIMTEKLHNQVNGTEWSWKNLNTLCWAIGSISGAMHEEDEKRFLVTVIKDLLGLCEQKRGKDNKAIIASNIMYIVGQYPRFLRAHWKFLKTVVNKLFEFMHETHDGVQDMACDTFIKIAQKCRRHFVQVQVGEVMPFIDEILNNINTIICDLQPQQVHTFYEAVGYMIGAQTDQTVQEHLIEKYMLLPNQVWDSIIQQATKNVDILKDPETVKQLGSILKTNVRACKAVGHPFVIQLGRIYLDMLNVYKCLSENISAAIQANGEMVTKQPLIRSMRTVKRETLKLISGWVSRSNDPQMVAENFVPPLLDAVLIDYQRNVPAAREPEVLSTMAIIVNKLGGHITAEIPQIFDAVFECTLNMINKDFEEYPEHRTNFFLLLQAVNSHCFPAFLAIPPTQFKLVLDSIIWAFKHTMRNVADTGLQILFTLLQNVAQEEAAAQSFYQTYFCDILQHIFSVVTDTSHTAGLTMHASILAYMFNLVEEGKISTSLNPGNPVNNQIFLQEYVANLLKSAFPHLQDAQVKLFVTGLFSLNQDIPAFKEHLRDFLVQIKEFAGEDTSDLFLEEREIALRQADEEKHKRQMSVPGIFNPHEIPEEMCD

Turning to `C=C(Cn1cnc(-c2cc(C(F)(F)F)cc(C(F)(F)F)c2)n1)C(=O)OC(C)C` [Compound 1, isopropyl 2-((3-(3,5-bis(trifluoromethyl)phenyl)-1H-1,2,4-triazol-1-yl)methyl)acrylate], on CRM1, the response was half-maximal at 900 nM (EC50). Further, in the experiment on MM1.S cells, the IC50 was 100 nM. For `C=C(Cn1cnc(-c2cc(OC)cc(C(F)(F)F)c2)n1)C(=O)OC(C)C` [Compound 3, isopropyl 2-((3-(3-methoxy-5-(trifluoromethyl)phenyl)-1H-1,2,4-triazol-1-yl)methyl)acrylate], in that order: 1800 nM and 50 nM. For `C=C(Cn1cnc(-c2cc(OC)cc(C(F)(F)F)c2)n1)C(=O)OCC` [Compound 4, ethyl 2-((3-(3-methoxy-5-(trifluoromethyl)phenyl)-1H-1,2,4-triazol-1-yl)methyl)acrylate], the response on CRM1 was half-maximal at 3800 nM (EC50).

`C=C(Cn1cnc(-c2cc(C(F)(F)F)cc(C(F)(F)F)c2)n1)C(=O)N1CC(F)(F)C1` [Compound 5, 2-((3-(3,5-bis(trifluoromethyl)phenyl)-1H-1,2,4-triazol-1-yl)methyl)-1-(3,3-difluoroazetidin-1-yl)prop-2-en-1-one] returned an EC50 on CRM1 of 1800 nM. This compound registered an IC50 with MM1.S cells of 90 nM. Taken in the same sequence, the figures for `C=C(Cn1cnc(-c2cc(C(F)(F)F)cc(C(F)(F)F)c2)n1)C(=O)NNc1ccccn1` [Compound 6, 2-((3-(3,5-bis(trifluoromethyl)phenyl)-1H-1,2,4-triazol-1-yl)methyl)-N′-(pyridin-2-yl)acrylohydrazide] were 900 nM and 70 nM.

In the experiment with MM1.S cells, `C=C(Cn1cnc(-c2cc(C(F)(F)F)cc(C(F)(F)F)c2)n1)C(=O)NNc1cnccn1` [Compound 7, 2-((3-(3,5-bis(trifluoromethyl)phenyl)-1H-1,2,4-triazol-1-yl)methyl)-N′-(pyrazin-2-yl)acrylohydrazide] gave an IC50 of 10 nM.

In the case of `C=C(Cn1cnc(-c2cc(C(F)(F)F)cc(C(F)(F)F)c2)n1)c1nnco1` [Compound 8, 2-(3-(3-(3,5-bis(trifluoromethyl)phenyl)-1H-1,2,4-triazol-1-yl)prop-1-en-2-yl)-1,3,4-oxadiazole], at CRM1, the EC50 was determined as 230 nM. For the same compound, the IC50 with MM1.S cells is 30 nM. `C=C(Cn1nnc(-c2ccccc2)n1)c1nnco1` [Compound 9, 2-(3-(5-phenyl-2H-tetrazol-2-yl)prop-1-en-2-yl)-1,3,4-oxadiazole] came in with a half-maximal effective concentration (EC50) on CRM1 of 15000 nM. `C=C(Cn1nnc(-c2ccccc2)n1)C(=O)N1CCCCC1` [Compound 10, 2-((5-phenyl-2H-tetrazol-2-yl)methyl)-1-(piperidin-1-yl)prop-2-en-1-one] showed a concentration for a half-maximal effect (EC50) at CRM1 greater than 30000 nM.

In turn, `C=C(Cn1nnc(-c2cc(C(F)(F)F)cc(C(F)(F)F)c2)n1)C(=O)OC(C)C` [Compound 11, isopropyl 2-((5-(3,5-bis(trifluoromethyl)phenyl)-2H-tetrazol-2-yl)methyl)acrylate] came in with a concentration for a half-maximal effect (EC50) on CRM1 of 15000 nM.

The record behind these values is patent US20160016916A1, “Exo Olefin-Containing Nuclear Transport Modulators and Uses Thereof” (KARYOPHARM THERAPEUTICS INC., priority 2013, published 2016).
